“Also recorded” adds a separate entry of the source. Read-outs that look alike come from different tables or passages of the source.
Experiments:
[1] = biological target: T1, human 5-HT2B receptor (Homo sapiens, UniProt P41595); set-up: method as in Luethi et al., 2018; details: ref Luethi et al., 2018, cited from earlier work
T1 construct: expressed in transfected cells; host or cells: HEK 293

[2] = biological target: T2, 5-HT1A receptor (Homo sapiens, UniProt P08908); details: cited from earlier work
T2 construct: expressed in transfected cells; host or cells: HEK 293 (membrane preparation)
T2 sequence (P08908 1-422): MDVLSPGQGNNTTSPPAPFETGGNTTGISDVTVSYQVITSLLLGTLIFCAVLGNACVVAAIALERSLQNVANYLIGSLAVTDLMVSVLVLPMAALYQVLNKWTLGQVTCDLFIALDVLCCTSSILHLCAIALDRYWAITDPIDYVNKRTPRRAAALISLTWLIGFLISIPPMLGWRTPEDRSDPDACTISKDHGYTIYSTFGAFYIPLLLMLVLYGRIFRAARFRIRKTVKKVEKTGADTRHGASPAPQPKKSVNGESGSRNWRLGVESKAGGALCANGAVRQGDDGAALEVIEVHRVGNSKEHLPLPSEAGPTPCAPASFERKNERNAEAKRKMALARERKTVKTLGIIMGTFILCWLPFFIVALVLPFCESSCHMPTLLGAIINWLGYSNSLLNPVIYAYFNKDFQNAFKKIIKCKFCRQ

[3] = tested on: humans; details: ref Shulgin and Shulgin, 1991, cited from earlier work; for Psychoactivity in humans: at the doses tested
[4] = biological target: T3, hDAT (Homo sapiens, UniProt Q01959); assay: Monoamine uptake transporter inhibition, [3H]dopamine, HEK 293 cells; details: 10 µM
T3 sequence (Q01959 whole entry): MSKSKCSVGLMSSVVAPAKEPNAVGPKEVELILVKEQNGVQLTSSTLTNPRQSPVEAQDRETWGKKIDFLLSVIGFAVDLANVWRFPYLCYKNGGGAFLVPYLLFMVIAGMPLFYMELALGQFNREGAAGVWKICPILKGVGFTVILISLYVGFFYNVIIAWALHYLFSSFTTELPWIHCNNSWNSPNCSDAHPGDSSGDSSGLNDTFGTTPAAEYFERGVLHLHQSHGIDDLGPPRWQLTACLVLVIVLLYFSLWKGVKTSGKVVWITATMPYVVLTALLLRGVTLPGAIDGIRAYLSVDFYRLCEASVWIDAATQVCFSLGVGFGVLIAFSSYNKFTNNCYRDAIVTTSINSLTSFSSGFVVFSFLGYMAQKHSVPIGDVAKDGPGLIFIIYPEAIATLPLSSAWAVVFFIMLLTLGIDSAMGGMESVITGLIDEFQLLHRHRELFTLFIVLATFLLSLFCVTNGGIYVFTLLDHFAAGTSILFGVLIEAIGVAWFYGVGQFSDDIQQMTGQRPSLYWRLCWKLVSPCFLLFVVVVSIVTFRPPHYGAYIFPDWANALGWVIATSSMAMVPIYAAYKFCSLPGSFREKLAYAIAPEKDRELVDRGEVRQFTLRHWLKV

[5] = biological target: T4, α2A adrenergic receptor (Homo sapiens, UniProt P08913); set-up: method as in Simmler et al., 2013; details: read-out: α2A Ki ± SD; [3H]rauwolscine; ref Simmler et al., 2013; cited from earlier work
T4 construct: expressed in transfected cells; host or cells: Chinese hamster lung cell line (membrane preparation)
T4 sequence (P08913 1-465): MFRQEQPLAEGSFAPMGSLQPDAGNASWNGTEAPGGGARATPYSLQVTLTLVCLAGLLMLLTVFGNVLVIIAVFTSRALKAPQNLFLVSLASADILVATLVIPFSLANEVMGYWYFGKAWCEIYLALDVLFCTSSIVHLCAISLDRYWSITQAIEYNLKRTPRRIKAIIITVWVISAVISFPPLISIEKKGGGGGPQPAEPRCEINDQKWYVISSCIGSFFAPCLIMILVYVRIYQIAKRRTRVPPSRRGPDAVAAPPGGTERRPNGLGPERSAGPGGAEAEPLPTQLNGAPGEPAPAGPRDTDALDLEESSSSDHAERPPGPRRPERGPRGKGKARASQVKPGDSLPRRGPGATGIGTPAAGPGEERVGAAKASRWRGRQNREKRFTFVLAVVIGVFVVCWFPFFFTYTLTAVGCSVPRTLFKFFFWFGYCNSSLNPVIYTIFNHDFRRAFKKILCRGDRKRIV

[6] = biological target: T5, mouse TAAR1 (Mus musculus, UniProt Q923Y8); set-up: method as in Simmler et al., 2013; details: read-out: mouse TAAR1 Ki ± SD; [3H]RO5166017; ref Simmler et al., 2013; cited from earlier work
T5 construct: expressed in transfected cells; host or cells: HEK 293 (membrane preparation)
T5 sequence (Q923Y8 whole entry): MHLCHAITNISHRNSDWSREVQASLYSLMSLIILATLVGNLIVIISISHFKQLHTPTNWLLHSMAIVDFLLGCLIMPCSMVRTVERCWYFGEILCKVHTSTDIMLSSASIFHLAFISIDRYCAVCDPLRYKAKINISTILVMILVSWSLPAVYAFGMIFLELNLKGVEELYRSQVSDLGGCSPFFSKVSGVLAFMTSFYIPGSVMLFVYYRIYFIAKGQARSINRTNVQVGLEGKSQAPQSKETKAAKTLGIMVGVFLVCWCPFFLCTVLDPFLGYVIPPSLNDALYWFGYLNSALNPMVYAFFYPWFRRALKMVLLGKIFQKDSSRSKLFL

[7] = biological target: T6, α1A adrenergic receptor (Homo sapiens, UniProt P35348); set-up: method as in Simmler et al., 2013; details: read-out: α1A Ki ± SD; [3H]prazosin; ref Simmler et al., 2013; cited from earlier work
T6 construct: expressed in transfected cells; host or cells: Chinese hamster ovary cell line (membrane preparation)
T6 sequence (P35348 1-466): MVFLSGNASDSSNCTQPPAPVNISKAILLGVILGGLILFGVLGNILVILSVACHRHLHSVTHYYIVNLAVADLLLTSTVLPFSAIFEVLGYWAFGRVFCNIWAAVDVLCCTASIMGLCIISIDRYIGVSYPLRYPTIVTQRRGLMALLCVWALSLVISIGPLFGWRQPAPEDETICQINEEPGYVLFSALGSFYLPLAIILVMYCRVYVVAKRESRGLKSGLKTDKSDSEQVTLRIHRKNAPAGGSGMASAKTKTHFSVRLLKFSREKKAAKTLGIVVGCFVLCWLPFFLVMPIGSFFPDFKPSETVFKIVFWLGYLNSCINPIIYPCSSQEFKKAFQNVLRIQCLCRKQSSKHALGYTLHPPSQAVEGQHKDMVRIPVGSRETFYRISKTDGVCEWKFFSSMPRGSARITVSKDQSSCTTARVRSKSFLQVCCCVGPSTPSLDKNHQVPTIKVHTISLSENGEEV

[8] = biological target: T3, hDAT; set-up: expressed in transfected cells; host or cells: HEK 293 (membrane preparation); method as in Simmler et al., 2013; details: [3H]WIN35,428; ref Simmler et al., 2013; read-out: hDAT Ki ± SD; cited from earlier work
[9] = biological target: T7, dopaminergic D2 receptor (Homo sapiens, UniProt P14416); set-up: method as in Simmler et al., 2013; details: read-out: D2 Ki ± SD; [3H]spiperone; ref Simmler et al., 2013; cited from earlier work
T7 construct: expressed in transfected cells; host or cells: HEK 293 (membrane preparation)
T7 sequence (P14416 whole entry): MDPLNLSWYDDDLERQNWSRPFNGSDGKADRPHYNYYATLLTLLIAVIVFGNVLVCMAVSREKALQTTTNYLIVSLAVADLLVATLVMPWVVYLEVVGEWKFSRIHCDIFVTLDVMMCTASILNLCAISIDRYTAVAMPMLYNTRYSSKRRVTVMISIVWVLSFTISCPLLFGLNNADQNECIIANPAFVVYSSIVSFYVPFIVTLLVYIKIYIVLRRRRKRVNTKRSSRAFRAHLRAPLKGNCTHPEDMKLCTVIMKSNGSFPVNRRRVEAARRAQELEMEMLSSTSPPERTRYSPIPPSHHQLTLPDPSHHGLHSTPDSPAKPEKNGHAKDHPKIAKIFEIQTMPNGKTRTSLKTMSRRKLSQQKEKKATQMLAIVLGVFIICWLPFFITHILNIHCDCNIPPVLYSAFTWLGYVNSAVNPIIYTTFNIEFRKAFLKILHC

[10] = biological target: T8, hSERT (Homo sapiens, UniProt P31645); assay: Monoamine uptake transporter inhibition, [3H]5-HT, HEK 293 cells; details: 10 µM
T8 sequence (P31645 whole entry): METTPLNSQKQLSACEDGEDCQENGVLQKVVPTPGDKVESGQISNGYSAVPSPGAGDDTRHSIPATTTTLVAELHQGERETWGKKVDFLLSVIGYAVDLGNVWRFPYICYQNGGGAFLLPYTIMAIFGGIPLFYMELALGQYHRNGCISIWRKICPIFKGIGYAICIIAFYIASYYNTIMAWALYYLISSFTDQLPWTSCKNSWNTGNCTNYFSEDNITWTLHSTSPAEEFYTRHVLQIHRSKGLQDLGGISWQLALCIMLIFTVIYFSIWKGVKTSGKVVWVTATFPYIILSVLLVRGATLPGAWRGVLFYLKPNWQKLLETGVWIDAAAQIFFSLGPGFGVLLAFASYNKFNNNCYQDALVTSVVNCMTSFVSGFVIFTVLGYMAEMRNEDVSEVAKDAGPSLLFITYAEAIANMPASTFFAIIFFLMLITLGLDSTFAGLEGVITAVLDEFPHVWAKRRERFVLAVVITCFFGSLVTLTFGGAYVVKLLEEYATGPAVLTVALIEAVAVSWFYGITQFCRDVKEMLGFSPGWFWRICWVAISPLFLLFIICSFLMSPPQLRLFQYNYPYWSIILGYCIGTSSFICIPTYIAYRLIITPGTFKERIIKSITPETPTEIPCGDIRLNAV

[11] = biological target: T9, rat TAAR1 (Rattus norvegicus, UniProt Q923Y9); set-up: method as in Simmler et al., 2013; details: read-out: rat TAAR1 Ki ± SD; [3H]RO5166017; ref Simmler et al., 2013; cited from earlier work
T9 construct: expressed in transfected cells; host or cells: HEK 293 (membrane preparation)
T9 sequence (Q923Y9 whole entry): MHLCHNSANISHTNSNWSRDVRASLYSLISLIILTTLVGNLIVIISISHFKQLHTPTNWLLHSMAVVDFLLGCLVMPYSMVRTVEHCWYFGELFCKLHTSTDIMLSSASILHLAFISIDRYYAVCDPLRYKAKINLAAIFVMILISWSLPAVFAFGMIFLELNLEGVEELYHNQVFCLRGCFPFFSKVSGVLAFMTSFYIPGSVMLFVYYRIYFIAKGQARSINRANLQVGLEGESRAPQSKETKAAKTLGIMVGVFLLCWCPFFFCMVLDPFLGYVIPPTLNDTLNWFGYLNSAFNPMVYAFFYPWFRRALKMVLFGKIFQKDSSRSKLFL

[12] = biological target: T10, hNET (Homo sapiens, UniProt P23975); set-up: expressed in transfected cells; host or cells: HEK 293 (membrane preparation); method as in Simmler et al., 2013; details: read-out: hNET Ki ± SD; N-methyl-[3H]nisoxetine; ref Simmler et al., 2013; cited from earlier work
T10 sequence (P23975 whole entry): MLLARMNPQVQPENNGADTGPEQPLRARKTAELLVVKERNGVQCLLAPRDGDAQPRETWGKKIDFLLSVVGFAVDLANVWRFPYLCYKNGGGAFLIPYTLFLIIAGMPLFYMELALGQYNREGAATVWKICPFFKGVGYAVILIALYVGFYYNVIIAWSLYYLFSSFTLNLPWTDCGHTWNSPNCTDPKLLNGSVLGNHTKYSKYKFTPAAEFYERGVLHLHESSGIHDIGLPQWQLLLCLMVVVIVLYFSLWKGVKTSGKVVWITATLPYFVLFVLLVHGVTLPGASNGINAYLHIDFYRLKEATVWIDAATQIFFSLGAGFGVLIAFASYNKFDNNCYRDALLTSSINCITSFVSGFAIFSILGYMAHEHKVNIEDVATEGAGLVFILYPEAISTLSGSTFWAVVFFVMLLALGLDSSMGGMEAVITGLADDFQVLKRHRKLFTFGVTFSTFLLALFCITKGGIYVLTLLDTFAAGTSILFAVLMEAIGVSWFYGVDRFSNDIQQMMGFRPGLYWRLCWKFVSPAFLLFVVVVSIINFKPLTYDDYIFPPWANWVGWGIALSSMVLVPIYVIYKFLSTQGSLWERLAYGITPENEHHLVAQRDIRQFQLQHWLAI

[13] = biological target: T10, hNET; assay: Monoamine uptake transporter inhibition, [3H]norepinephrine, HEK 293 cells; details: 10 µM
[14] = biological target: T3, hDAT; set-up: expressed in transfected cells; host or cells: HEK 293 (membrane preparation); details: read-out: DAT uptake inhibition EC50; known low potency in this assay; no reference given; cited from earlier work
[15] = tested on: head-twitch response; set-up: method as in Halberstadt et al., 2019; details: ref Halberstadt et al., 2019; cited from earlier work
[16] = biological target: T4, α2A adrenergic receptor; assay: Radioligand binding, α2A adrenergic receptor ([3H]rauwolscine)
[17] = biological target: T10, hNET; assay: Radioligand binding, NET (N-methyl-[3H]nisoxetine); set-up: expressed in transfected cells; host or cells: HEK 293 (membrane preparation)
[18] = biological target: T1, human 5-HT2B receptor; assay: Activity at the 5-HT2B receptor (FLIPR calcium, HEK 293 cells); type: cell-based
Protocol: Activity at the 5-HT2B receptor was examined as previously described ([Luethi et al., 2018]). In summary, HEK 293 cells expressing the human 5-HT2B receptor were seeded at a density of 50,000 cells per well in 96-well poly-D-lysine-coated plates overnight at 37°C. The cells were then incubated in growth medium consisting of high glucose Dulbecco’s modified Eagle’s medium (DMEM) (Invitrogen, Zug, Switzerland), 10% fetal calf serum (non-dialyzed, heat-inactivated), 250 mg/l Geneticin and 10 ml/l PenStrep (Gibco), overnight at 37°C. After removal of the growth medium via snap inversion, calcium indicator Fluo-4-solution (100 µl) was injected into each well (Molecular Probes, Eugene, OR, USA) and incubated for 45 min at 31°C. Afterwards, the Fluo-4 solution was removed (snap inversion) and a further 100 µl of the Fluo-4 solution was added and incubated (45 min, 31°C). Thereafter, using the EMBLA cell washer, the cells were washed just before testing with HBSS and 20 mM HEPES and exposed to 100 µl of assay buffer. The well plate was positioned in the FLIPR and while online, 25 µl of the test compounds diluted in assay buffer were added. Concentration-response curves were calculated using nonlinear regression, and EC50 values were obtained. The maximal activity at the receptors was calculated relative to 5-HT activity which was defined as 100%.

[19] = biological target: T5, mouse TAAR1; assay: Radioligand binding, mouse TAAR1 ([3H]RO5166017)
[20] = biological target: T3, hDAT; assay: Radioligand binding, DAT ([3H]WIN35,428); set-up: expressed in transfected cells; host or cells: HEK 293 (membrane preparation)
[21] = biological target: T8, hSERT; assay: Radioligand binding, SERT ([3H]citalopram); set-up: expressed in transfected cells; host or cells: HEK 293 (membrane preparation)
[22] = biological target: T9, rat TAAR1; assay: Radioligand binding, rat TAAR1 ([3H]RO5166017)
[23] = biological target: T2, 5-HT1A receptor; assay: Radioligand binding, 5-HT1A receptor ([3H]8-OH-DPAT)
[24] = biological target: T6, α1A adrenergic receptor; assay: Radioligand binding, α1A adrenergic receptor ([3H]prazosin)
[25] = biological target: T7, dopaminergic D2 receptor; assay: Radioligand binding, dopaminergic D2 receptor ([3H]spiperone)

T1 sequence (P41595 whole entry): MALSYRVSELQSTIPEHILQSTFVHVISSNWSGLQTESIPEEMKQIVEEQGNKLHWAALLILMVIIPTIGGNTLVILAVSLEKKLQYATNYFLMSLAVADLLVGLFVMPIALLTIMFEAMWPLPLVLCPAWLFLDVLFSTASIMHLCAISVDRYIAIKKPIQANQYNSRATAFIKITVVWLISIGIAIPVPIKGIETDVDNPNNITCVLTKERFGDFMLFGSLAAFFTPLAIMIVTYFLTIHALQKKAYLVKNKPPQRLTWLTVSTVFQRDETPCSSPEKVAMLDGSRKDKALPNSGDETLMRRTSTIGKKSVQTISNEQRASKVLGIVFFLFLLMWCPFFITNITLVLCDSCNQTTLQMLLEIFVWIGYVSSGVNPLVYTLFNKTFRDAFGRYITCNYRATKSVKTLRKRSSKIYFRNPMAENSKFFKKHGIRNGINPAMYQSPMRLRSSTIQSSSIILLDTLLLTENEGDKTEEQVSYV

Compound: COc1cc(CCN)c(OC)cc1Br [2C-B, 4-bromo-2,5-dimethoxyphenethylamine]
- EC50 ([1]; read-out: h5-HT2B Activation potency EC50 ± SD): 0.075 ± 0.014 µM
- h5-HT2B Activation efficacy max ± SD ([1]; relative to 5-HT): 52 ± 26%
- Ki ([2]; read-out: h5-HT1A Receptor binding Ki ± SD, [3H]8-OH-DPAT, ref Luethi et al., 2018): 0.311 ± 0.046 µM

Compound: COc1cc(OC)c(OC)cc1CCN [2C-O-1, 2,4,5-trimethoxyphenethylamine]
- Psychoactivity in humans [3]: fairly inactive in humans; also recorded: not psychoactive in humans

Compound: COc1cc(OC(C)C)c(OC)cc1CCN [2C-O-4, 2,5-dimethoxy-4-isopropoxyphenethylamine]
- Psychoactivity in humans [3]: fairly inactive in humans; also recorded: not psychoactive in humans

Compound: CCCCOc1cc(OC)c(CC(C)N)cc1OC (stereo not shown) [MBM, 4-butoxy-2,5-dimethoxyamphetamine]
- Psychoactivity in humans [3]: no psychoactive effects

Compound: CNC(C)Cc1ccc2c(c1)OCO2 (stereo not shown) [MDMA]
- Effect on DA uptake into the cells [4]: moderately reduced
- Ki [5]: 15 ± 0.2 µM
- Ki [6]: 2.4 ± 1.1 µM
- Ki [7]: > 6 µM
- Ki [8]: 6.5 ± 2.5 µM
- Ki [9]: 25.2 ± 2 µM
- Effect on 5-HT uptake into the cells [10]: markedly reduced
- Ki [11]: 0.37 ± 0.12 µM
- Ki [12]: 30.5 ± 8 µM
- Effect on NE uptake into the cells [13]: markedly reduced
- EC50 [14]: 17 µM

Compound: CCOc1cc(OC)c(CC(C)N)cc1OC (stereo not shown) [MEM, 2,5-dimethoxy-4-ethoxyamphetamine]
- Behavioral potency in head-twitch response [15]: equipotent
- Psychoactivity in humans [3]: displayed psychedelic activity

Compound: CCCOc1cc(OC)c(CC(C)N)cc1OC (stereo not shown) [MPM, 2,5-dimethoxy-4-propoxyampehtamine]
- Behavioral potency in head-twitch response [15]: equipotent
- Psychoactivity in humans [3]: no psychoactive effects

Compound: COc1cc(OC)c(OC)cc1CC(C)N (stereo not shown) [TMA-2, 2,4,5-trimethoxyamphetamine]
- Ki [16]: > 4.7 µM
- Ki [17]: > 8.7 µM
- EC50 [18]: 0.27 µM
- Emax ([18]; HEK293, relative to 5-HT = 100%, read-out: h5-HT2B Activation efficacy max ± SD): 78 ± 5%
- Ki [19]: > 4.4 µM
- Behavioral potency in head-twitch response [15]: equipotent
- Ki [20]: > 8.5 µM
- Ki [21]: > 7.5 µM
- Psychoactivity in humans [3]: displayed psychedelic activity
- Potency in humans relative to 3,4,5-trimethoxyamphetamine (TMA) ([3]; EMCDDA, 2004): roughly 6 times
- Ki [22]: 3.1 ± 0.1 µM
- Ki [23]: > 17 µM
- Ki [24]: > 6.5 µM
- Ki [25]: > 13 µM

Compound: CC(N)Cc1ccccc1 (stereo not shown) [amphetamine]
- Ki ([2]; read-out: 5-HT1A receptor Ki, ref Simmler et al., 2013): 6.7 µM

Compound: COc1cc(CCN)cc(OC)c1OC [mescaline, 3,4,5-trimethoxyphenethylamine]
- Psychoactive oral dose in humans ([3]; oral, humans): > 200 mg

— publication PMC6893898, “Receptor Interaction Profiles of 4-Alkoxy-Substituted 2,5-Dimethoxyphenethylamines and Related Amphetamines” (Frontiers in Pharmacology, 2019)
